Patent EP0598515A1, “Method for herbicidal activity-enhancing, activity-enhanced herbicidal composition and activity-enhancing composition” (ISHIHARA SANGYO KAISHA LTD., priority 1992, dated 1994)
Where two headings read alike, the source gives them in different places.

What was measured:
Format in all cases: in vivo
[1] = system: johnsongrass (Sorghum halepense L.); assay: Test Example 10: pot test on rhizome plants, Example 8 suspension concentrate with Frigate; conditions: duplicate; for inhibition at 10 g/ha / inhibition at 20 g/ha / inhibition at 30 g/ha / inhibition at 40 g/ha: Sorghum halepense; for inhibition at 10 g/ha: Compound A 10 g/ha
Method: Rhizomes of johnsongrass (Sorghum halepense L.) induced to germinate were transplanted in 1/150,000-hectare pots filled with upland soil and arranged in a duplicate system. When the johnsongrass plants grew to a 3- to 6-leaf stage, the oil-based suspension concentrate obtained in Example 8 was diluted with 200 liters/hectare of water containing a predetermined amount of Frigate and was applied foliarly to the plants with a small spray gun.
Seventeen days and fifty six days after treatment (D.A.T.) the growth inhibition of plants was evaluated with visual observation in the same manner as in Test Example 1 and are shown in Table 10.

[2] = system: Common lambsquarters (Chenopodium album L.); assay: Test Example 12: field plot test, growth inhibition; conditions: Example 8 suspension concentrate, 27 days after treatment, field plots; for inhibition at 40 g/ha: Compound A 40 g/ha; for inhibition at 60 g/ha: Compound A 60 g/ha
From the text: (§1) In field plots of 3 m² (1 m × 3 m) unit arranged in a duplicate system, seeds of corn, crabgrass (Digitaria sanguinalis L.), green foxtail (Setaria viridis L.), common lambsquarters (Chenopodium album L.), slender amaranth (Amaranthus virdis L.) and velvetleaf (Abutilon theophrasti MEDIC.) were sown and grown. Also, barnyardgrass (Echinochloa crus-galli L.), henbit (Lamiun amplexlcaule L.), pale smartweed (Polygonum lapathifolium L.) and threeseeded copperleaf (Acalypha australis L.) were allowed to grow spontaneously. When the plants grew to certain stages (corn: 6.1 to 6.5-leaf stage, crabgrass: 2.0 to 4.5-leaf stage, green foxtail: 3.0 to 4.5-leaf stage, common lambsquarters: 4.0 to 8.0-leaf stage, slender amaranth: 1.0 to 4.0-leaf stage, velvetleaf: 2.0 to 3.5-leaf stage, barnyardgrass: 3.0 to 4.5-leaf stage, henbit: 2.0 to 5.0 cm, pale smartweed: 3.0 to 5.0-leaf stage and threeseeded copperleaf: 2.0 to 4.0-leaf stage), the oil-based suspension concentrate obtained in Example 8 was diluted with 200 liters/hectare of water containing a predetermined amount of Frigate and was applied foliarly to the plants with a small spray gun.
(§2) Twenty seven days after treatment, the growth inhibition of plants except for corn plants was evaluated with visual observation in the same manner as in Test Example 1 and are shown in Table 12.

[3] = system: Crabgrass (Digitaria sanguinalis L.); assay: as above; conditions: 648 h, Example 8 suspension concentrate, 27 days after treatment, field plots, read-out: Growth Inhibition (%) DS; for inhibition at 40 g/ha: Compound A 40 g/ha; for inhibition at 60 g/ha: Compound A 60 g/ha
From the text: as §1, §2

[4] = system: Velvetleaf (Abutilon theophrasti MEDIC.); assay: as above; conditions: Example 8 suspension concentrate, 27 days after treatment, field plots; for inhibition at 40 g/ha: Compound A 40 g/ha
From the text: as §1, §2

[5] = system: green foxtail (Setaria viridis L.); assay: as above; conditions: 648 h, Example 8 suspension concentrate, 27 days after treatment, field plots, read-out: Growth Inhibition (%) SV
From the text: as §1, §2

[6] = system: henbit (Lamiun amplexlcaule L.); assay: as above; conditions: 648 h, Example 8 suspension concentrate, 27 days after treatment, field plots, read-out: Growth Inhibition (%) LA
From the text: as §1, §2

[7] = system: pale smartweed (Polygonum lapathifolium L.); assay: as above; conditions: Example 8 suspension concentrate, 27 days after treatment, field plots; for inhibition at 60 g/ha: Compound A 60 g/ha
From the text: as §1, §2

[8] = system: slender amaranth (Amaranthus virdis L.); assay: as above; conditions: 648 h, Example 8 suspension concentrate, 27 days after treatment, field plots, read-out: Growth Inhibition (%) AV; for inhibition at 40 g/ha: Compound A 40 g/ha; for inhibition at 60 g/ha: Compound A 60 g/ha
From the text: as §1, §2

[9] = system: threeseeded copperleaf (Acalypha australis L.); assay: as above; conditions: Example 8 suspension concentrate, 27 days after treatment, field plots; for inhibition at 40 g/ha: Compound A 40 g/ha
From the text: as §1, §2

[10] = system: total evaluation; assay: Test Example 12: field plot test, total evaluation of growth inhibition; conditions: 648 h, Example 8 suspension concentrate, 27 days after treatment, field plots, read-out: Growth Inhibition (%) TE; for inhibition at 40 g/ha: Compound A 40 g/ha; for inhibition at 60 g/ha: Compound A 60 g/ha
From the text: as §1, §2

[11] = Chenopodium album, 648 h, Frigate 0.2 % by volume, read-out: Growth Inhibition (%) CA
[12] = Chenopodium album, 648 h, Frigate: No addition, read-out: Growth Inhibition (%) CA
[13] = Frigate 0.2 % by volume, Compound A 20 g/ha
[14] = Frigate 0.2 % by volume, Compound A 30 g/ha
[15] = Frigate 0.2 % by volume, Compound A 60 g/ha
[16] = Frigate 0.2 % by volume, Compound A 40 g/ha
[17] = Frigate: No addition, Compound A 60 g/ha

## COc1cc(OC)nc(NC(=O)NS(=O)(=O)c2ncccc2C(=O)N(C)C)n1 [Compound A, N-[(4,6-dimethoxypyrimidin-2-yl)aminocarbonyl]-3-dimethylaminocarbonyl-2-pyridinesulfonamide]
[1]; Frigate 0.1 % by volume, Compound A 30 g/ha, 17 days after treatment
  Growth Inhibition (%) of Johnsongrass 17 D.A.T.: 80%
[1]; Frigate 0.2 % by volume, Compound A 20 g/ha, 17 days after treatment
  Growth Inhibition (%) of Johnsongrass 17 D.A.T.: 80%
[1]; Frigate 0.2 % by volume, Compound A 30 g/ha, 17 days after treatment
  Growth Inhibition (%) of Johnsongrass 17 D.A.T.: 80%
[1]; Frigate 0.2 % by volume, Compound A 30 g/ha, 56 days after treatment
  Growth Inhibition (%) of Johnsongrass 56 D.A.T.: 98%
[1]; Frigate: No addition, Compound A 40 g/ha, 56 days after treatment
  Growth Inhibition (%) of Johnsongrass 56 D.A.T.: 98%
[1]; 408 h, Frigate 0.1 % by volume, 17 days after treatment, read-out: Growth Inhibition (%) of Johnsongrass 17 D.A.T.
  inhibition at 10 g/ha: 65%
[1]; 408 h, Frigate 0.1 % by volume, Compound A 20 g/ha, 17 days after treatment, read-out: Growth Inhibition (%) of Johnsongrass 17 D.A.T.
  inhibition at 20 g/ha: 75%
[1]; 408 h, Frigate 0.1 % by volume, Compound A 30 g/ha, 17 days after treatment, read-out: Growth Inhibition (%) of Johnsongrass 17 D.A.T.
  inhibition at 30 g/ha: 75%
[1]; 408 h, Frigate 0.2 % by volume, 17 days after treatment, read-out: Growth Inhibition (%) of Johnsongrass 17 D.A.T.
  inhibition at 10 g/ha: 70%
[1]; 408 h, Frigate 0.2 % by volume, Compound A 20 g/ha, 17 days after treatment, read-out: Growth Inhibition (%) of Johnsongrass 17 D.A.T.
  inhibition at 20 g/ha: 75%
[1]; 408 h, Frigate 0.2 % by volume, Compound A 30 g/ha, 17 days after treatment, read-out: Growth Inhibition (%) of Johnsongrass 17 D.A.T.
  inhibition at 30 g/ha: 85%
[1]; 408 h, Frigate: No addition, Compound A 20 g/ha, 17 days after treatment, read-out: Growth Inhibition (%) of Johnsongrass 17 D.A.T.
  inhibition at 20 g/ha: 65%
[1]; 408 h, Frigate: No addition, Compound A 30 g/ha, 17 days after treatment, read-out: Growth Inhibition (%) of Johnsongrass 17 D.A.T.
  inhibition at 30 g/ha: 60%
[1]; 408 h, Frigate: No addition, Compound A 40 g/ha, 17 days after treatment, read-out: Growth Inhibition (%) of Johnsongrass 17 D.A.T.
  inhibition at 40 g/ha: 65%
[1]; 1344 h, Frigate 0.1 % by volume, 56 days after treatment, read-out: Growth Inhibition (%) of Johnsongrass 56 D.A.T.
  inhibition at 10 g/ha: 100%
[1]; 1344 h, Frigate 0.1 % by volume, Compound A 20 g/ha, 56 days after treatment, read-out: Growth Inhibition (%) of Johnsongrass 56 D.A.T.
  inhibition at 20 g/ha: 100%
[1]; 1344 h, Frigate 0.1 % by volume, Compound A 30 g/ha, 56 days after treatment, read-out: Growth Inhibition (%) of Johnsongrass 56 D.A.T.
  inhibition at 30 g/ha: 100%
[1]; 1344 h, Frigate 0.2 % by volume, 56 days after treatment, read-out: Growth Inhibition (%) of Johnsongrass 56 D.A.T.
  inhibition at 10 g/ha: 100%
[1]; 1344 h, Frigate 0.2 % by volume, Compound A 20 g/ha, 56 days after treatment, read-out: Growth Inhibition (%) of Johnsongrass 56 D.A.T.
  inhibition at 20 g/ha: 100%
[1]; 1344 h, Frigate 0.2 % by volume, Compound A 30 g/ha, 56 days after treatment, read-out: Growth Inhibition (%) of Johnsongrass 56 D.A.T.
  inhibition at 30 g/ha: 100%
[1]; 1344 h, Frigate: No addition, Compound A 20 g/ha, 56 days after treatment, read-out: Growth Inhibition (%) of Johnsongrass 56 D.A.T.
  inhibition at 20 g/ha: 90%
[1]; 1344 h, Frigate: No addition, Compound A 40 g/ha, 56 days after treatment, read-out: Growth Inhibition (%) of Johnsongrass 56 D.A.T.
  inhibition at 40 g/ha: 100%
[2]; Chenopodium album, 648 h, Frigate 0.2 % by volume, Compound A 20 g/ha, read-out: Growth Inhibition (%) CA
  inhibition at 20 g/ha: 80%
[2]; Chenopodium album, 648 h, Frigate 0.2 % by volume, Compound A 30 g/ha, read-out: Growth Inhibition (%) CA
  inhibition at 30 g/ha: 80%
[2]; [11]
  inhibition at 40 g/ha: 95%
  inhibition at 60 g/ha: 99%
[2]; [12]
  inhibition at 40 g/ha: 40%
  inhibition at 60 g/ha: 50%
[2]; [13]
  Growth Inhibition (%) CA: 75%
[3]; [13]
  inhibition at 20 g/ha: 90%
[3]; [14]
  inhibition at 30 g/ha: 95%
[3]; Frigate 0.2 % by volume
  inhibition at 40 g/ha: 95%
  inhibition at 60 g/ha: 99%
[3]; Frigate: No addition
  inhibition at 40 g/ha: 95%
  inhibition at 60 g/ha: 98%
[4]; Abutilon theophrasti, 648 h, Frigate 0.2 % by volume, Compound A 20 g/ha
  inhibition at 20 g/ha: 75%
[4]; Abutilon theophrasti, 648 h, Frigate 0.2 % by volume, Compound A 30 g/ha
  inhibition at 30 g/ha: 80%
[4]; Abutilon theophrasti, 648 h, Frigate 0.2 % by volume
  inhibition at 40 g/ha: 80%
[4]; Abutilon theophrasti, 648 h, Frigate 0.2 % by volume, Compound A 60 g/ha
  inhibition at 60 g/ha: 95%
[4]; Abutilon theophrasti, 648 h, Frigate: No addition
  inhibition at 40 g/ha: 70%
[4]; Abutilon theophrasti, 648 h, Frigate: No addition, Compound A 60 g/ha
  inhibition at 60 g/ha: 65%
[4]; [15]
  Growth Inhibition (%) AT: 100%
[5]; [13]
  inhibition at 20 g/ha: 100%
[5]; [14]
  inhibition at 30 g/ha: 100%
[5]; [16]
  inhibition at 40 g/ha: 100%
[5]; [17]
  inhibition at 60 g/ha: 100%
[6]; [13]
  inhibition at 20 g/ha: 98%
[6]; [14]
  inhibition at 30 g/ha: 98%
[6]; [16]
  inhibition at 40 g/ha: 98%
[6]; [17]
  inhibition at 60 g/ha: 98%
[7]; [13]
  Growth Inhibition (%) PL: 80%
[7]; Frigate: No addition, Compound A 40 g/ha
  Growth Inhibition (%) PL: 70%
[7]; Persicaria lapathifolia, 648 h, Frigate 0.2 % by volume, Compound A 20 g/ha, read-out: Growth Inhibition (%) PL
  inhibition at 20 g/ha: 100%
[7]; Persicaria lapathifolia, 648 h, Frigate 0.2 % by volume, Compound A 30 g/ha, read-out: Growth Inhibition (%) PL
  inhibition at 30 g/ha: 100%
[7]; Persicaria lapathifolia, 648 h, Frigate 0.2 % by volume, Compound A 40 g/ha, read-out: Growth Inhibition (%) PL
  inhibition at 40 g/ha: 95%
[7]; Persicaria lapathifolia, 648 h, Frigate 0.2 % by volume, read-out: Growth Inhibition (%) PL
  inhibition at 60 g/ha: 98%
[7]; Persicaria lapathifolia, 648 h, Frigate: No addition, Compound A 40 g/ha, read-out: Growth Inhibition (%) PL
  inhibition at 40 g/ha: 90%
[7]; Persicaria lapathifolia, 648 h, Frigate: No addition, read-out: Growth Inhibition (%) PL
  inhibition at 60 g/ha: 100%
[8]; [13]
  inhibition at 20 g/ha: 100%
[8]; [14]
  inhibition at 30 g/ha: 99%
[8]; Frigate 0.2 % by volume
  inhibition at 40 g/ha: 99%
  inhibition at 60 g/ha: 99%
[8]; Frigate: No addition
  inhibition at 40 g/ha: 99%
  inhibition at 60 g/ha: 99%
[9]; Acalypha australis, 648 h, Frigate 0.2 % by volume, Compound A 20 g/ha, read-out: Growth Inhibition (%) AA
  inhibition at 20 g/ha: 90%
[9]; Acalypha australis, 648 h, Frigate 0.2 % by volume, Compound A 30 g/ha, read-out: Growth Inhibition (%) AA
  inhibition at 30 g/ha: 90%
[9]; Acalypha australis, 648 h, Frigate 0.2 % by volume, read-out: Growth Inhibition (%) AA
  inhibition at 40 g/ha: 95%
[9]; Acalypha australis, 648 h, Frigate 0.2 % by volume, Compound A 60 g/ha, read-out: Growth Inhibition (%) AA
  inhibition at 60 g/ha: 90%
[9]; Acalypha australis, 648 h, Frigate: No addition, read-out: Growth Inhibition (%) AA
  inhibition at 40 g/ha: 90%
[9]; Acalypha australis, 648 h, Frigate: No addition, Compound A 60 g/ha, read-out: Growth Inhibition (%) AA
  inhibition at 60 g/ha: 90%
[9]; [15]
  Growth Inhibition (%) AA: 98%
[10]; [13]
  inhibition at 20 g/ha: 95%
[10]; [14]
  inhibition at 30 g/ha: 95%
[10]; Frigate 0.2 % by volume
  inhibition at 40 g/ha: 95%
  inhibition at 60 g/ha: 99%
[10]; Frigate: No addition
  inhibition at 40 g/ha: 70%
  inhibition at 60 g/ha: 70%
